From ChEMBL document CHEMBL3232987, “Investigation of Ugi-4CC derived 1H-tetrazol-5-yl-(aryl) methyl piperazinyl-6-fluoro-4-oxo-1,4-dihydroquinoline-3-carboxylic acid: synthesis, biology and 3D-QSAR analysis” (Eur J Med Chem, 2014)
In brackets after ≈: the same amount, converted by molar mass.

Legend:
[1] = tested on: Staphylococcus aureus; test: Antibacterial activity against Staphylococcus aureus ATCC 25923 by NCCLS two-fold dilution method; format: functional; conditions: for MIC: Staphylococcus aureus, ATCC 25923
[2] = tested on: Staphylococcus aureus; test: Antibacterial activity against methicillin-resistant Staphylococcus aureus ATCC 700699 by NCCLS two-fold dilution method; format: functional
[3] = tested on: Staphylococcus aureus; test: Antibacterial activity against Staphylococcus aureus ATCC 29213 by NCCLS two-fold dilution method; format: functional
[4] = tested on: Staphylococcus aureus; test: Antibacterial activity against gentamicin-resistant Staphylococcus aureus ATCC 33592 by NCCLS two-fold dilution method; format: functional
[5] = tested on: Staphylococcus aureus; test: Antibacterial activity against Staphylococcus aureus ATCC 25923 after 24 hrs by spectrophotometric analysis; format: functional, organism-based; conditions: Staphylococcus aureus, ATCC 25923, 24 h; for IC50: read-out: IC50
[6] = tested on: Staphylococcus aureus; test: Antibacterial activity against methicillin-resistant Staphylococcus aureus ATCC 700699 after 24 hrs by spectrophotometric analysis; format: functional, organism-based; conditions: Staphylococcus aureus, ATCC 700699, 24 h; for IC50: read-out: IC50
[7] = tested on: Staphylococcus aureus; test: Antibacterial activity against Staphylococcus aureus ATCC 29213 after 24 hrs by spectrophotometric analysis; format: functional, organism-based; conditions: Staphylococcus aureus, ATCC 29213, 24 h; for IC50: read-out: IC50
[8] = tested on: Staphylococcus aureus; test: Antibacterial activity against gentamicin-resistant Staphylococcus aureus ATCC 33592 after 24 hrs by spectrophotometric analysis; format: functional, organism-based; conditions: Staphylococcus aureus, ATCC 33592, 24 h; for IC50: read-out: IC50
[9] = tested on: Escherichia coli; test: Antibacterial activity against Escherichia coli by NCCLS two-fold dilution method; format: functional
[10] = tested on: Klebsiella pneumoniae; test: Antibacterial activity against Klebsiella pneumoniae by NCCLS two-fold dilution method; format: functional
[11] = tested on: Escherichia coli; test: Antibacterial activity against Escherichia coli after 24 hrs by spectrophotometric analysis; format: functional, organism-based; conditions: Escherichia coli, 24 h; for IC50: read-out: IC50
[12] = tested on: Klebsiella pneumoniae; test: Antibacterial activity against Klebsiella pneumoniae after 24 hrs by spectrophotometric analysis; format: functional, organism-based; conditions: Klebsiella pneumoniae, 24 h; for IC50: read-out: IC50
[13] = tested on: L929; test: Cytotoxicity against mouse L929 cells assessed as cell viability up to MIC 0.39 ug/ml after 24 hrs by MTT assay; format: cell-based; conditions: l929, 24 h
[14] = tested on: L929; test: Cytotoxicity against mouse L929 cells assessed as cell viability up to MIC 0.78 ug/ml after 24 hrs by MTT assay; format: cell-based; conditions: l929, 24 h
[15] = tested on: L929; test: Cytotoxicity against mouse L929 cells assessed as cell morphological changes at 12.5 to 50 ug/ml after 24 hrs by giemsa staining based phase contrast microscopy; conditions: l929, 24 h

Row | SMILES | -logMIC [1] | MIC [1] | MIC [2] | MIC [3] | MIC [4] | MIC [5] | IC50 [5] | MIC [6] | IC50 [6] | MIC [7] | IC50 [7] | MIC [8] | IC50 [8] | MIC [9] | MIC [10] | MIC [11] | IC50 [11] | MIC [12] | IC50 [12] | Activity [13] | further results
1 | CCn1cc(C(=O)O)c(=O)c2cc(F)c(N3CCN(C(c4ccncc4)c4nnnn4C4CCCCC4)CC3)cc21 (stereo not drawn) | 5.555 | 1.56 µg/mL (≈ 2.78 µM) | 50 µg/mL (≈ 89.2 µM) | 3.12 µg/mL (≈ 5.57 µM) | 3.12 µg/mL (≈ 5.57 µM) | 1.09 µg/mL (≈ 1.94 µM) | 0.37 µg/mL (≈ 0.66 µM) | > 50 µg/mL | 50 µg/mL (≈ 89.2 µM) | 1 µg/mL (≈ 1.78 µM) | 0.6 µg/mL (≈ 1.07 µM) | 0.6 µg/mL (≈ 1.07 µM) | 0.1 µg/mL (≈ 0.178 µM) | 6.25 µg/mL (≈ 11.1 µM) | 6.25 µg/mL (≈ 11.1 µM) | 4.2 µg/mL (≈ 7.49 µM) | 2.1 µg/mL (≈ 3.75 µM) | 6.3 µg/mL (≈ 11.2 µM) | 3.5 µg/mL (≈ 6.24 µM) | Non-toxic | –
2 | CC(C)(C)n1nnnc1C(c1ccc(F)cc1)N1CCN(c2cc3c(cc2F)c(=O)c(C(=O)O)cn3Cc2ccc(C(F)(F)F)cc2)CC1 (stereo not drawn) | 5.037 | 6.25 µg/mL (≈ 9.17 µM) | 25 µg/mL (≈ 36.7 µM) | 3.12 µg/mL (≈ 4.58 µM) | 6.25 µg/mL (≈ 9.17 µM) | 3.1 µg/mL (≈ 4.55 µM) | 1 µg/mL (≈ 1.47 µM) | 19.8 µg/mL (≈ 29 µM) | 8.09 µg/mL (≈ 11.9 µM) | 1.6 µg/mL (≈ 2.35 µM) | 1.4 µg/mL (≈ 2.05 µM) | 2.5 µg/mL (≈ 3.67 µM) | 0.5 µg/mL (≈ 0.733 µM) | – | – | – | – | – | – | Non-toxic | –
3 | CCn1cc(C(=O)O)c(=O)c2cc(F)c(N3CCN(C(c4cccc5ccccc45)c4nnnn4C(C)(C)C)CC3)cc21 (stereo not drawn) | 5.573 | 1.56 µg/mL (≈ 2.67 µM) | 6.25 µg/mL (≈ 10.7 µM) | 3.12 µg/mL (≈ 5.35 µM) | 0.78 µg/mL (≈ 1.34 µM) | 0.8 µg/mL (≈ 1.37 µM) | 0.7 µg/mL (≈ 1.2 µM) | 4.9 µg/mL (≈ 8.4 µM) | 3.5 µg/mL (≈ 6 µM) | 2.4 µg/mL (≈ 4.11 µM) | 0.2 µg/mL (≈ 0.343 µM) | 0.7 µg/mL (≈ 1.2 µM) | 0.2 µg/mL (≈ 0.343 µM) | – | – | – | – | – | – | Non-toxic | –
4 | CCn1cc(C(=O)O)c(=O)c2cc(F)c(N3CCN(C(c4ccncc4)c4nnnn4C(C)(C)C)CC3)cc21 (stereo not drawn) | 5.534 | 1.56 µg/mL (≈ 2.92 µM) | 50 µg/mL (≈ 93.5 µM) | 1.56 µg/mL (≈ 2.92 µM) | 1.56 µg/mL (≈ 2.92 µM) | 0.9 µg/mL (≈ 1.68 µM) | 0.5 µg/mL (≈ 0.935 µM) | 50 µg/mL (≈ 93.5 µM) | 50 µg/mL (≈ 93.5 µM) | 0.9 µg/mL (≈ 1.68 µM) | 0.6 µg/mL (≈ 1.12 µM) | 0.7 µg/mL (≈ 1.31 µM) | 0.35 µg/mL (≈ 0.655 µM) | 25 µg/mL (≈ 46.8 µM) | 25 µg/mL (≈ 46.8 µM) | 27.7 µg/mL (≈ 51.8 µM) | 20.5 µg/mL (≈ 38.3 µM) | 26 µg/mL (≈ 48.6 µM) | 24 µg/mL (≈ 44.9 µM) | Non-toxic | –
5 | O=C(O)c1cn(Cc2ccc(C(F)(F)F)cc2)c2cc(N3CCN(C(c4ccco4)c4nnnn4C4CCCCC4)CC3)c(F)cc2c1=O (stereo not drawn) | 5.939 | 0.78 µg/mL (≈ 1.15 µM) | 50 µg/mL (≈ 73.6 µM) | 1.56 µg/mL (≈ 2.3 µM) | 0.78 µg/mL (≈ 1.15 µM) | 0.52 µg/mL (≈ 0.765 µM) | 0.2 µg/mL (≈ 0.294 µM) | 50 µg/mL (≈ 73.6 µM) | > 50 µg/mL | 0.82 µg/mL (≈ 1.21 µM) | 0.75 µg/mL (≈ 1.1 µM) | 0.78 µg/mL (≈ 1.15 µM) | 0.4 µg/mL (≈ 0.589 µM) | 6.25 µg/mL (≈ 9.2 µM) | 6.25 µg/mL (≈ 9.2 µM) | 4.2 µg/mL (≈ 6.18 µM) | 2.9 µg/mL (≈ 4.27 µM) | 3.4 µg/mL (≈ 5 µM) | 1.7 µg/mL (≈ 2.5 µM) | Non-toxic | –
6 | CCn1cc(C(=O)O)c(=O)c2cc(F)c(N3CCN(C(c4ccco4)c4nnnn4C(C)(C)C)CC3)cc21 (stereo not drawn) | – | 0.78 µg/mL (≈ 1.49 µM) | 50 µg/mL (≈ 95.5 µM) | 0.78 µg/mL (≈ 1.49 µM) | 0.78 µg/mL (≈ 1.49 µM) | 0.4 µg/mL (≈ 0.764 µM) | 0.3 µg/mL (≈ 0.573 µM) | 46.9 µg/mL (≈ 89.6 µM) | 24.6 µg/mL (≈ 47 µM) | 0.6 µg/mL (≈ 1.15 µM) | 0.2 µg/mL (≈ 0.382 µM) | 0.5 µg/mL (≈ 0.955 µM) | 0.2 µg/mL (≈ 0.382 µM) | 6.25 µg/mL (≈ 11.9 µM) | 12.5 µg/mL (≈ 23.9 µM) | 4.2 µg/mL (≈ 8.02 µM) | 2.9 µg/mL (≈ 5.54 µM) | 10.1 µg/mL (≈ 19.3 µM) | 5.3 µg/mL (≈ 10.1 µM) | Non-toxic | Activity [14]: Non-toxic; Activity [15]: Non-toxic
7 | CCn1cc(C(=O)O)c(=O)c2cc(F)c(N3CCN(C(c4ccccc4)c4nnnn4C4CCCCC4)CC3)cc21 (stereo not drawn) | 5.554 | 1.56 µg/mL (≈ 2.79 µM) | 12.5 µg/mL (≈ 22.3 µM) | 3.12 µg/mL (≈ 5.57 µM) | 1.56 µg/mL (≈ 2.79 µM) | 0.8 µg/mL (≈ 1.43 µM) | 0.4 µg/mL (≈ 0.715 µM) | 11.6 µg/mL (≈ 20.7 µM) | 4.9 µg/mL (≈ 8.76 µM) | 1.5 µg/mL (≈ 2.68 µM) | 0.8 µg/mL (≈ 1.43 µM) | 0.78 µg/mL (≈ 1.39 µM) | 0.75 µg/mL (≈ 1.34 µM) | – | – | – | – | – | – | Non-toxic | –
